Entries after “also recorded” stand apart in the source; their conditions may differ.

For one data set, the system named is Bacillus anthracis. The arrangement: species or system baboons (Papio c. cynocephalus). To be noted: in vivo.
Another data set concerns baboons. The conditions noted are these: in vivo.

For the substance activated protein C [aPC], in the data set with Bacillus anthracis, the “blood cultures (bacterial colony counts)” value is listed as “no effect; also recorded: no significant difference between groups”; the “decreases in fibrinogen (and in platelets)” value is reported as “not mitigated”; the “liver and kidney function (ALT, AST, BUN, creatinine)” value was “markedly spared”; the “peak bDNA load (16S bacterial DNA, plasma qPCR)” value was “no significant effect”. Besides, in the data set on Bacillus anthracis, the “peak plasma mtDNA (CytB) level during anthrax bacteremia” value is given as “approximately 200 ng/mL”; the “plasma bDNA (16S-rDNA) level and fall off over time” value is recorded as “essentially identical fall off; also recorded: no effect; also recorded: does not affect”; the “plasma mtDNA levels after resolution of bacteremia” value is listed as “mtDNA levels began falling after 24 hours; also recorded: plasma mtDNA levels decayed; also recorded: reduction in mtDNA”; the “respiratory rate (RR) / tachypnea” value is “RR remained normal; also recorded: prevents tachypnea; also recorded: RR was unchanged”. In the data set with Bacillus anthracis, the survival entry is recorded as “the animals survived; also recorded: all these animals survived”.
With Shiga toxin 1 [ST1], in the data set with baboons, the “circulating bDNA after toxin administration” value was “insignificant levels”.

(Values after patent US20130243794A1 (priority 2010, published 2013).)
